Source: paper PMC8881610 (Nature Communications, 2022)

Tests used:
GCGR [1] = experiment: cAMP accumulation assay, GCGR WT, mutant or modified constructs; assay type: cell-based, human; details: GCGR triple mutant (Q142A + D195A + R199A) vs WT
Protocol: Human embryonic kidney 293 cells containing SV40 large T-antigen (HEK293T) were cultured in DMEM (Gibco) supplemented with 10% (v/v) fetal bovine serum (FBS, Gibco), 1 mM sodium pyruvate (Gibco) and 100 units/mL penicillin and 100 μg/mL streptomycin at 37 °C in 5% CO2. Chinese hamster ovary (CHO-K1) cells were cultured in F-12 (Gibco) containing 10% FBS, 100 units/mL penicillin and 100 μg/mL streptomycin at 37 °C in 5% CO2. For cAMP and receptor expression assays, HEK293T cells were seeded into 6-well cell culture plates at a density of 7 × 10^5 cells per well. After overnight incubation, cells were transfected with GIPR, GLP-1R or GCGR construct using Lipofectamine 2000 or Lipofectamine 3000 transfection reagent (Invitrogen). For whole-cell binding assay, CHO-K1 cells were seeded into 96-well fibronectin-treated cell culture plates at a density of 3 × 10^4 cells per well. After overnight incubation, cells were transfected with GIPR, GLP-1R or GCGR construct using Lipofectamine 2000 transfection reagent (Invitrogen). Following 24 h culturing, the transfected cells were ready for use. […]
For GIPR, GLP-1R and GCGR, multi-targeting agonist stimulated cAMP accumulation was measured by a LANCE Ultra cAMP kit (PerkinElmer). […] Plates were incubated at RT for 1 h and the fluorescence intensity measured at 620 nm and […] by an EnVision multilabel plate reader (PerkinElmer).

GCGR [2] = target: GCGR (Homo sapiens, UniProt P47871, Y202A); experiment: Whole-cell binding assay, competition with 125I-GCG; parameters: V5 (C); 6×His (C); expressed in transfected cells; host or cells: CHO-K1; details: GCGR Y202A, CHO-K1
Sequence of GCGR (Homo sapiens, UniProt P47871, Y202A) (P47871 26-477 Y202A): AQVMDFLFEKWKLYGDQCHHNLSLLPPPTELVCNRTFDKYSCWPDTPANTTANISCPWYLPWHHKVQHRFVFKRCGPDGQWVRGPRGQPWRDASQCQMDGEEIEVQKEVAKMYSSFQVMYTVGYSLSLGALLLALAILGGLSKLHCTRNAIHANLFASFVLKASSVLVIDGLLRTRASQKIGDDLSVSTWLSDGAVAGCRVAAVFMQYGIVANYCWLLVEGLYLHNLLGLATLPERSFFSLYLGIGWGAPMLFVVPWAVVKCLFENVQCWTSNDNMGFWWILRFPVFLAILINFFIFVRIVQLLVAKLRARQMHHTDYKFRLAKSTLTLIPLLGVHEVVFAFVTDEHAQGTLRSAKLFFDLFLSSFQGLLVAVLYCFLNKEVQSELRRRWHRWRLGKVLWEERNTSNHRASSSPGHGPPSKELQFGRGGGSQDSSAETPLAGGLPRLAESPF
Summary of the method: (§1)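 CHO-K1 cells transiently transfected with WT or mutant receptor constructs, washed in F-12 with 0.1% BSA or casein/33 mM HEPES and incubated 2 h at 37 °C. Bound radioactivity counted after Triton lysis; data normalized to WT and fitted to a three-parameter logistic equation.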

GCGR [3] = target: GCGR (Homo sapiens, UniProt P47871, W215A); experiment: as above; parameters: V5 (C); 6×His (C); expressed in transfected cells; host or cells: CHO-K1; details: GCGR W215A, CHO-K1
Sequence of GCGR (Homo sapiens, UniProt P47871, W215A) (P47871 26-477 W215A): as the sequence (P47871 26-477 Y202A) above, with A177Y, W190A counted along it
Summary of the method: as §1

GCGR [4] = target: GCGR (Homo sapiens, UniProt P47871, Q131A); experiment: as above; parameters: V5 (C); 6×His (C); expressed in transfected cells; host or cells: CHO-K1; details: GCGR Q131A, CHO-K1
Sequence of GCGR (Homo sapiens, UniProt P47871, Q131A) (P47871 26-477 Q131A): as the sequence (P47871 26-477 Y202A) above, with Q106A, A177Y counted along it
Summary of the method: as §1

GCGR [5] = target: GCGR (Homo sapiens, UniProt P47871, D195A); experiment: as above; parameters: V5 (C); 6×His (C); expressed in transfected cells; host or cells: CHO-K1; details: GCGR D195A; CHO-K1; read-out: binding pIC50 (converted)
Sequence of GCGR (Homo sapiens, UniProt P47871, D195A) (P47871 26-477 D195A): as the sequence (P47871 26-477 Y202A) above, with D170A, A177Y counted along it
Summary of the method: as §1

GCGR [6] = target: GCGR (Homo sapiens, UniProt P47871, W87A); experiment: as above; parameters: V5 (C); 6×His (C); expressed in transfected cells; host or cells: CHO-K1; details: GCGR W87A, CHO-K1
Sequence of GCGR (Homo sapiens, UniProt P47871, W87A) (P47871 26-477 W87A): as the sequence (P47871 26-477 Y202A) above, with W62A, A177Y counted along it
Summary of the method: as §1

GCGR [7] = target: GCGR (Homo sapiens, UniProt P47871, R199A); experiment: as above; parameters: V5 (C); 6×His (C); expressed in transfected cells; host or cells: CHO-K1; details: GCGR R199A, CHO-K1
Sequence of GCGR (Homo sapiens, UniProt P47871, R199A) (P47871 26-477 R199A): as the sequence (P47871 26-477 Y202A) above, with R174A, A177Y counted along it
Summary of the method: as §1

GCGR [8] = target: GCGR (Homo sapiens, UniProt P47871, Y138A); experiment: as above; parameters: V5 (C); 6×His (C); expressed in transfected cells; host or cells: CHO-K1; details: GCGR Y138A, CHO-K1
Sequence of GCGR (Homo sapiens, UniProt P47871, Y138A) (P47871 26-477 Y138A): as the sequence (P47871 26-477 Y202A) above, with Y113A, A177Y counted along it
Summary of the method: as §1

[9] = read-out: binding pIC50 (converted)

CCCCCCCCCCCCCCCC(=O)N[C@@H](CCC(=O)NCCCC[C@H](NC(=O)[C@H](CC(=O)O)NC(=O)[C@H](CO)NC(=O)[C@@H](NC(=O)[C@H](Cc1ccccc1)NC(=O)[C@@H](NC(=O)CNC(=O)[C@H](CCC(N)=O)NC(=O)C(C)(C)NC(=O)[C@@H](N)Cc1c[nH]cn1)[C@@H](C)O)[C@@H](C)O)C(=O)N[C@@H](CO)C(=O)N[C@@H](CCCCN)C(=O)N[C@@H](Cc1ccc(O)cc1)C(=O)N[C@@H](CC(C)C)C(=O)N[C@@H](CC(=O)O)C(=O)N[C@@H](CCC(=O)O)C(=O)N[C@@H](CCCNC(=N)N)C(=O)N[C@@H](C)C(=O)N[C@@H](C)C(=O)N[C@@H](CCC(N)=O)C(=O)N[C@@H](CC(=O)O)C(=O)N[C@@H](Cc1ccccc1)C(=O)N[C@H](C(=O)N[C@@H](CCC(N)=O)C(=O)N[C@@H](Cc1c[nH]c2ccccc12)C(=O)N[C@@H](CC(C)C)C(=O)N[C@@H](CC(C)C)C(=O)N[C@@H](CC(=O)O)C(=O)NCC(=O)NCC(=O)N1CCC[C@H]1C(=O)N[C@@H](CO)C(=O)N[C@@H](CO)C(=O)NCC(=O)N[C@@H](C)C(=O)N1CCC[C@H]1C(=O)N1CCC[C@H]1C(=O)N1CCC[C@H]1C(=O)N[C@@H](CO)C(N)=O)C(C)C)C(=O)O [Peptide 20] was tested, and the “reduction of potency (cAMP) by receptor mutation” value (GCGR [1]) was 93 fold, the “binding Span” value (GCGR [2]) was 5.12 ± 1.71 % WT and the IC50 (GCGR [2]; [9]) was 18.6 nM. The “binding Span” value (GCGR [3]) was 7.72 ± 2.74 % WT, the IC50 (GCGR [3]; [9]) was 145 nM and the “binding Span” value (GCGR [4]) was 32.87 ± 3.34 % WT. For the same molecule, the IC50 (GCGR [4]; [9]) was 69.2 nM, the IC50 (GCGR [5]) was 25.7 nM and the “binding Span” value (GCGR [6]) was 4.68 ± 2.95 % WT. For the same molecule, the IC50 (GCGR [6]; [9]) was 1.51 nM, the “binding Span” value (GCGR [7]) was 59.87 ± 5.43 % WT and the IC50 (GCGR [7]; [9]) was 178 nM. For the same molecule, the “binding Span” value (GCGR [8]) was 2.08 ± 2.48 % WT and the IC50 (GCGR [8]; [9]) was 1.15 nM.
